Experimental data published in PMC3984054 (Bioorganic & medicinal chemistry, 2013).
Where two headings read alike, the source gives them in different places. Marks after values point to notes of the source that are not given here.

Experiments:
[1] = tested on: PrP^Sc in dividing ScN2a-cl3 cells; assay: cells; type: cell-based, mouse; settings: for EC50: Mus musculus
in vitro = settings: mouse
[2] = tested on: PrP^Sc in stationary-phase ScN2a-cl3 cells; type: cell-based, mouse
in vivo = settings: female, FVB, mouse, po, 10 mg/kg, Cmax ± SD
PrP^Sc in dividing cells = settings: cited from earlier work
[3] = tested on: PrP^Sc in stationary-phase cells; settings: cited from earlier work
[4] = read-out: EC50 in dividing cells (text and footnote)

CN1CCc2cccc3c2[C@H]1Cc1ccc(O)c(O)c1-3 [Apomorphine, reference compound]
EC50 ([1]; read-out: EC50 ± SEM (antiprion activity by ELISA)): > 10000 nM

COc1ccccc1OCCNCC(O)COc1cccc2[nH]c3ccccc3c12 (stereo not shown) [Carvedilol]
CC50 (in vitro): 5000 to 6100 nM

Nc1c(/N=N/c2ccc(-c3ccc(/N=N/c4cc(S(=O)(=O)[O-])c5ccccc5c4N)cc3)cc2)cc(S(=O)(=O)[O-])c2ccccc12.[Na+].[Na+] [Congo Red, reference compound]
antiprion potency in dividing cells [1]: good potency | EC50 [1, 4]: ~400 nM | effect on cell viability (dividing ScN2a-cl3 cells): no effects on cell viability

CCOc1ccc(/N=N/c2ccc(N)cc2N)cc1 [Ethoxazine]
CC50 (dividing ScN2a-cl3 cells): > 10000 nM

CC(NCCC(c1ccccc1)c1ccccc1)c1ccccc1 (stereo not shown) [Fendiline]
EC50 (in vitro): 4300 to 9600 nM

Cc1ccc2[nH]c3c(c2c1)CCCC3NCCCN(C)C (stereo not shown) [IND23308]
Reduction (%) Stationary PrP^Sc [2]: 94 ^c % | percent reduction in PrP^Sc in the HTS [2]: 70% | effect on cell viability (dividing ScN2a-cl3 cells): no effect on cell viability

c1cncc(-c2nc(-c3c[nH]c4ccccc34)cs2)c1 [IND24350]
EC50 [1, 4]: < 1000 nM

CC(=O)c1ccc(NC(=O)c2sc3nc4c(cc3c2N)CCCC4)cc1 [IND24609]
antiprion potency in dividing cells [1]: inactive

COc1ccc(-c2cc(-c3ccc(OC)cc3O)[nH]n2)cc1 [IND25807]
EC50 [1, 4]: < 1000 nM

Cn1c(=N)n(CC(=O)c2ccc(Cl)cc2)c2ccccc21 [IND26326]
EC50 [1, 4]: > 1000 nM

CCOc1ccc(NC(=O)c2cc3ccccc3cc2O)cc1 [IND31751]
EC50 [1, 4]: < 1000 nM

COc1ccc(C(=O)Nc2ccc(-c3csc(C)n3)cc2)cc1 [IND33145]
EC50 [1, 4]: < 1000 nM

OCCNCc1cc(Br)ccc1OCc1ccc(Cl)cc1Cl [IND34452]
EC50 [1, 4]: > 1000 nM

CN(C)CCNc1nc(-c2ccc(Cl)cc2)nc2ccccc12 [IND34921]
EC50 [1, 4]: > 1000 nM

COc1cccc(Nc2nc(N)c3ccccc3n2)c1 [IND35916]
EC50 [1, 4]: > 1000 nM

COc1ccc(CCNC(=O)c2sc3nc(-c4cccs4)ccc3c2N)cc1OC [IND42103]
antiprion potency in dividing cells [1]: inactive

COc1cc(N)c(-c2ccc3cc(OC)c(OC)cc3n2)cc1OC [IND44355]
EC50 [1, 4]: > 1000 nM

Cn1c(=N)n(CC(=O)c2ccc(Br)cc2)c2ccccc21 [IND44723]
EC50 [1, 4]: > 1000 nM

CN1CCN(c2ccc(Nc3ccnc4cc(Cl)ccc34)cc2)CC1 [IND45193]
EC50 [1, 4]: > 1000 nM | Cmax (in vivo; brain): 1610 ± 230 nM | Cmax (in vivo; plasma): 130 ± 10 nM

COc1cc(CNCCO)cc(Br)c1OCc1ccccc1Cl [IND46380]
EC50 [1, 4]: > 1000 nM

COc1ccc2cc3c(N)c(C(=O)Nc4ccc(C(C)=O)cc4)sc3nc2c1 [IND52025]
EC50 [1, 4]: < 1000 nM

N#Cc1sc2nc(-c3ccc4c(c3)OCO4)ccc2c1N [IND52851]
Cmax (in vivo; brain): 1020 ± 710 nM | Cmax (in vivo; plasma): 410 ± 250 nM

COc1ccc(-c2nc3cc(NC(=O)c4ccc(OCc5ccccc5)cc4)ccc3o2)cc1 [IND114202]
EC50 [1, 4]: < 1000 nM

COc1ccc2cc1Oc1ccc(cc1)C[C@H]1c3cc(c(OC)cc3CCN1C)Oc1c(OC)c(OC)cc3c1[C@H](C2)N(C)CC3 [Tetrandine]
CC50 (dividing ScN2a-cl3 cells): 5000 to 6100 nM

CCN(CC)CCCC(C)Nc1c2ccc(Cl)cc2nc2ccc(OC)cc12 (stereo not shown) [quinacrine]
activity in dividing cells (PrP^Sc in dividing cells): rapidly cleared | activity in stationary-phase cells [3]: relatively ineffective

Dextran [reference compound]
EC50 ± SEM (antiprion activity by ELISA) [1]: 0.40 ± 0.08 (mg/L) | antiprion potency in dividing cells [1]: good potency

Enoxaparin [reference compound]
EC50 ± SEM (antiprion activity by ELISA) [1]: >10 (mg/L) | LC50 ± SEM (cell viability by calcein) (dividing ScN2a-cl3 cells): >10 (mg/L)
